Data: patent US9353081B2, “Bicyclic dihydroquinoline-2-one derivatives” (Hoffmann-La Roche Inc., priority 2011, dated 2016)
Where a name gives a salt, the structure may show the parent alone.

How the values were obtained:
human CYP11B1 = human CYP11B1 (Homo sapiens (Human), UniProt P15538); test: G-402 cellular enzyme assay, human CYP11B1 (cortisol release, HTRF); type: cell-based; conditions: G-402 cells expressing human CYP11B1; 1 μM Deoxycortisol
Description: (§1) Specifically we developed stable G-402 cells expressing ectopically human CYP11B1, human CYP11B2, human CYP11A1, cynomolgus CYP11B1 or cynomolgus CYP11B2 enzyme activity.
(§2) The expression plasmids contains the ORF for either human/cyno CYP11B1 or CYP11B2 under the control of a suitable promoter (CMV-promoter) and a suitable resistance marker (neomycin). Using standard techniques the expression plasmid is transfected into G-402 cells and these cells are then selected for expressing the given resistance markers. Individual cell-clones are then selected and assessed for displaying the desired enzymatic activity using 11-Deoxycorticosterone (Cyp11B2) or 11-Deoxycortisol (Cyp11B1) as a substrate.
(§3) For assaying enzymatic activity, cells were plated onto 96 well plates and incubated for 16 h. An aliquot of the supernatant is then transferred and analyzed for the concentration of the expected product (Aldosterone for CYP11B2; Cortisol for CYP11B1). The concentrations of these steroids can be determined using HTRF assays from CisBio analyzing either Aldosterone or Cortisol.
(§4) Inhibition of the release of produced steroids can be used as a measure of the respective enzyme inhibition by test compounds added during the cellular enzyme assay. The dose dependent inhibition of enzymatic activity by a compound is calculated by means of plotting added inhibitor concentrations x-axes) vs. measured steroid/product level (y-axes). The inhibition is then calculated by fitting the following 4-parameter sigmoidal function (Morgan-Mercer-Flodin (MMF) model) to the raw data points using the least squares method:
(§5) [formula] wherein, A is the maximum y value, B is the EC50 factor determined using XLFit, C is the minimum y value and D is the slope value.
(§6) EC50 values for compounds claimed herein were tested with the G402-based assay system described. Cyp11B2 enzyme activity was tested in presence of 1 μM Deoxycorticosterone and variable amounts of inhibitors; Cyp11B1 enzyme activity was tested in presence of 1 μM Deoxycortisol and variable amounts of inhibitors.

human CYP11B2 = human CYP11B2 (Homo sapiens (Human), UniProt P19099); test: G-402 cellular enzyme assay, human CYP11B2 (aldosterone release, HTRF); type: cell-based; conditions: G-402 cells expressing human CYP11B2; 1 μM Deoxycorticosterone
Description: as §1, §2, §3, §4, §5, §6

human CYP11B1, sequence (P15538 25-503): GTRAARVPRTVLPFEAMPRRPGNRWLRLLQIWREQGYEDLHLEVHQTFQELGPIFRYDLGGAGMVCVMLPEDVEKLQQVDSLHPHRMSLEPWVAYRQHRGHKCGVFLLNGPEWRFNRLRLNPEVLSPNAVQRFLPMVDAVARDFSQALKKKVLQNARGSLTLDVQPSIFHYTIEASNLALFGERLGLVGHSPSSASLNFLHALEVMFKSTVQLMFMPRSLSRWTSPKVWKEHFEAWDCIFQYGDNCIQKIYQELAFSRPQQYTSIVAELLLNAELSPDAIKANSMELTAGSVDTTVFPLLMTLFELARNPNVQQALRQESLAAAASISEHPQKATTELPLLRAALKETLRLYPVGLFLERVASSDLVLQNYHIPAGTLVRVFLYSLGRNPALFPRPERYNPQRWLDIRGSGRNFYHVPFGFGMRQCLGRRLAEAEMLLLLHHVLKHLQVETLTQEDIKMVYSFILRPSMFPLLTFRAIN
human CYP11B2, sequence (P19099 25-503): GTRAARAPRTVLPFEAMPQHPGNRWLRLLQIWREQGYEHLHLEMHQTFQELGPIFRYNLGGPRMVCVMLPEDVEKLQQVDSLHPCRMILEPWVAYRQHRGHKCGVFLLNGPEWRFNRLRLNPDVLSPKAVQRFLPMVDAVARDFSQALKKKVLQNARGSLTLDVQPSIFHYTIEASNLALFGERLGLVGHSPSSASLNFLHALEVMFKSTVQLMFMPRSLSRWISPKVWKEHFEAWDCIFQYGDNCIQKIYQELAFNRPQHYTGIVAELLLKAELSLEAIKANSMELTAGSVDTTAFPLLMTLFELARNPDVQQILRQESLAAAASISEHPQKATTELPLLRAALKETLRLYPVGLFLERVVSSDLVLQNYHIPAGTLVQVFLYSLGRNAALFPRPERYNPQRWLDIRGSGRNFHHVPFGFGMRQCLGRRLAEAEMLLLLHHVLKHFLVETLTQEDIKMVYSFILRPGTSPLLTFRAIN

Structure (SMILES): C[C@@H](O)C(=O)NC1CCCc2c(-c3ccc4c(c3)CCC(=O)N4C)cncc21 (single isomer, unassigned; (-)) [Example 19, (−)-(2R)-2-Hydroxy-N-((4S or 4R)-4-(1-methyl-2-oxo-1,2,3,4-tetrahydroquinolin-6-yl)-5,6,7,8-tetrahydroisoquinolin-8-yl)propanamide]
- EC50 (human CYP11B1): 13200 nM
- EC50 (human CYP11B2): 493 nM

Structure (SMILES): CCC(=O)NC1CCc2c(-c3cc(Cl)c4c(c3)CCC(=O)N4C)cncc21 (racemic) [Example 58, (rac)-N-(4-(8-Chloro-1-methyl-2-oxo-1,2,3,4-tetrahydroquinolin-6-yl)-6,7-dihydro-5H-cyclopenta[c]pyridin-7-yl)propionamide]
- EC50 (human CYP11B1): 7600 nM
- EC50 (human CYP11B2): 44.6 nM

Structure (SMILES): CCC(=O)N[C@H]1c2cncc(-c3cc4c(cc3F)N(C)C(=O)CC4)c2CC[C@@H]1F (single isomer, unassigned) [Example 54, (+)-N-[(7S,8S or 7R,8R)-7-Fluoro-4-(7-fluoro-1-methyl-2-oxo-1,2,3,4-tetrahydro-quinolin-6-yl)-5,6,7,8-tetrahydro-isoquinolin-8-yl]-propionamide]
- EC50 (human CYP11B1): 2390 nM
- EC50 (human CYP11B2): 38.8 nM

Structure (SMILES): CN1C(=O)CCc2cc(-c3cncc4c3CCCN4CCN)ccc21 [Example 12, 6-[1-(2-Amino-ethyl)-1,2,3,4-tetrahydro-[1,7]naphthyridin-5-yl]-1-methyl-3,4-dihydro-1H-quinolin-2-one hydrochloride]
- EC50 (human CYP11B1): 1880 nM
- EC50 (human CYP11B2): 4 nM

Structure (SMILES): CC(O)C(=O)NC1CCCc2c(-c3ccc4c(c3)CCC(=O)N4C)cncc21 [Example 15, (2R,S)-2-Hydroxy-N-[(4R,S)-4-(1-methyl-2-oxo-1,2,3,4-tetrahydroquinolin-6-yl)-5,6,7,8-tetrahydroisoquinolin-8-yl]propanamide]
- EC50 (human CYP11B1): 574 nM
- EC50 (human CYP11B2): 77.3 nM

Structure (SMILES): CCC(=O)NC1CCCc2c(-c3cc4c(cc3Cl)N(C)C(=O)CC4)cncc21 (single isomer, unassigned) [Example 35, N—[(R or S)-4-(7-Chloro-1-methyl-2-oxo-1,2,3,4-tetrahydro-quinolin-6-yl)-5,6,7,8-tetrahydro-isoquinolin-8-yl]-propionamide]
- EC50 (human CYP11B2): 1770 nM

Structure (SMILES): CCC(=O)NC1CCc2c(-c3cc(Cl)c4c(c3)CCC(=O)N4C)cncc21 (single isomer, unassigned; (+)) [Example 60, (+)-(R or S)—N-(4-(8-Chloro-1-methyl-2-oxo-1,2,3,4-tetrahydroquinolin-6-yl)-6,7-dihydro-5H-cyclopenta[c]pyridin-7-yl)propionamide]
- EC50 (human CYP11B1): 1170 nM
- EC50 (human CYP11B2): 8.8 nM

Structure (SMILES): CCS(=O)(=O)NC1CCCc2c(-c3ccc4c(c3)CCC(=O)N4C)cncc21 (single isomer, unassigned; (-)) [Example 5, (−)-(R or S)—N-(4-(1-Methyl-2-oxo-1,2,3,4-tetrahydroquinolin-6-yl)-5,6,7,8-tetrahydroisoquinolin-8-yl)ethanesulfonamide]
- EC50 (human CYP11B1): 11800 nM
- EC50 (human CYP11B2): 1290 nM

Structure (SMILES): CN1C(=O)CCc2cc(-c3cncc4c3CCCC4O)ccc21 (single isomer, unassigned) [Example 68, (S or R)-6-(8-Hydroxy-5,6,7,8-tetrahydro-isoquinolin-4-yl)-1-methyl-3,4-dihydroquinolin-2(1H)-one]
- EC50 (human CYP11B1): 1620 nM
- EC50 (human CYP11B2): 77.4 nM

Structure (SMILES): CCC(=O)NC1CCCc2c(-c3ccc4c(c3)CCC(=O)N4C)cncc21 (single isomer, unassigned; (-)) [Example 2, (−)-(R or S)—N-(4-(1-Methyl-2-oxo-1,2,3,4-tetrahydroquinolin-6-yl)-5,6,7,8-tetrahydroisoquinolin-8-yl)propionamide]
- EC50 (human CYP11B1): 12100 nM
- EC50 (human CYP11B2): 1020 nM

Structure (SMILES): C[C@H](O)C(=O)NC1CCCc2c(-c3ccc4c(c3)CCC(=O)N4C)cncc21 (single isomer, unassigned; (+)) [Example 21, (+)-(2S)-2-hydroxy-N-((4R or 4S)-4-(1-methyl-2-oxo-1,2,3,4-tetrahydroquinolin-6-yl)-5,6,7,8-tetrahydroisoquinolin-8-yl)propanamide]
- EC50 (human CYP11B1): 598 nM
- EC50 (human CYP11B2): 28 nM

Structure (SMILES): CCC(=O)NC1CCCc2c(-c3cc4c(cc3F)N(C)C(=O)CC4)cncc21 (racemic) [Example 28, (rac)-N-[4-(7-Fluoro-1-methyl-2-oxo-1,2,3,4-tetrahydro-quinolin-6-yl)-5,6,7,8-tetrahydroisoquinolin-8-yl]-propionamide]
- EC50 (human CYP11B1): 6820 nM
- EC50 (human CYP11B2): 74.9 nM

Structure (SMILES): CCC(=O)N[C@@H]1c2cncc(-c3cc4c(cc3F)N(C)C(=O)CC4)c2CC[C@H]1F (single isomer, unassigned) [Example 56, (−)-N-[(7R,8R or 7S,8S)-7-Fluoro-4-(7-fluoro-1-methyl-2-oxo-1,2,3,4-tetrahydro-quinolin-6-yl)-5,6,7,8-tetrahydro-isoquinolin-8-yl]-propionamide]
- EC50 (human CYP11B1): 14900 nM
- EC50 (human CYP11B2): 2780 nM

Structure (SMILES): CN1C(=O)CCc2cc(-c3cncc4c3CCCC4=O)ccc21 [Example 70, 1-Methyl-6-(8-oxo-5,6,7,8-tetrahydro-isoquinolin-4-yl)-3,4-dihydro-1H-quinolin-2-one]
- EC50 (human CYP11B1): 7170 nM
- EC50 (human CYP11B2): 15.7 nM

Structure (SMILES): CCC(=O)N[C@@H]1c2cncc(-c3cc4c(cc3F)N(C)C(=O)CC4)c2CC[C@@H]1F (single isomer, unassigned) [Example 57, (−)-N-[(7S,8R or 7R,8S)-7-Fluoro-4-(7-fluoro-1-methyl-2-oxo-1,2,3,4-tetrahydro-quinolin-6-yl)-5,6,7,8-tetrahydro-isoquinolin-8-yl]-propionamide]
- EC50 (human CYP11B1): 20300 nM
- EC50 (human CYP11B2): 884 nM

Structure (SMILES): CCC(=O)NC1CCCc2c(-c3ccc4c(c3)CCC(=O)N4C)cncc21 (single isomer, unassigned; (+)) [Example 3, (+)-(S or R)—N-(4-(1-Methyl-2-oxo-1,2,3,4-tetrahydroquinolin-6-yl)-5,6,7,8-tetrahydroisoquinolin-8-yl)propionamide]
- EC50 (human CYP11B1): 980 nM
- EC50 (human CYP11B2): 14 nM

Structure (SMILES): CN1C(=O)CCc2cc(-c3cncc4c3CCC[C@H]4NS(C)(=O)=O)ccc21 [Example 65, N—[(R)-4-(1-Methyl-2-oxo-1,2,3,4-tetrahydro-quinolin-6-yl)-5,6,7,8-tetrahydro-isoquinolin-8-yl]-methanesulfonamide]
- EC50 (human CYP11B1): 1930 nM
- EC50 (human CYP11B2): 17 nM

Structure (SMILES): CCC(=O)NC1CCc2c(-c3cc4c(cc3F)N(C)C(=O)CC4)cncc21 (single isomer, unassigned; (-)) [Example 23, (−)-(S or R)—N-(4-(7-Fluoro-1-methyl-2-oxo-1,2,3,4-tetrahydroquinolin-6-yl)-6,7-dihydro-5H-cyclopenta[c]pyridin-7-yl)propionamide]
- EC50 (human CYP11B2): 1380 nM

Structure (SMILES): CCS(=O)(=O)NC1CCCc2c(-c3cc(Cl)c4c(c3)CCC(=O)N4C)cncc21 (single isomer, unassigned; (-)) [Example 39, (−)-Ethanesulfonic acid [(S or R)-4-(8-chloro-1-methyl-2-oxo-1,2,3,4-tetrahydro-quinolin-6-yl)-5,6,7,8-tetrahydro-isoquinolin-8-yl]-amide]
- EC50 (human CYP11B2): 130 nM

Structure (SMILES): CCC(=O)NC1CCc2c(-c3cc(Cl)c4c(c3)CCC(=O)N4C)cncc21 (single isomer, unassigned; (-)) [Example 59, (−)-(S or R)—N-(4-(8-Chloro-1-methyl-2-oxo-1,2,3,4-tetrahydroquinolin-6-yl)-6,7-dihydro-5H-cyclopenta[c]pyridin-7-yl)propionamide]
- EC50 (human CYP11B2): 3290 nM

Structure (SMILES): CCS(=O)(=O)NC1CCc2c(-c3cc4c(cc3F)N(C)C(=O)CC4)cncc21 (single isomer, unassigned; (-)) [Example 26, (−)-(S or R)—N-(4-(7-Fluoro-1-methyl-2-oxo-1,2,3,4-tetrahydroquinolin-6-yl)-6,7-dihydro-5H-cyclopenta[c]pyridin-7-yl)ethanesulfonamide]
- EC50 (human CYP11B2): 4550 nM

Structure (SMILES): CCC(=O)N[C@@H]1c2cncc(-c3ccc4c(c3)CCC(=O)N4C)c2CC[C@H]1C (single isomer, unassigned) [Example 47, (−)-N-[(7R,8S or 7S,8R)-7-Methyl-4-(1-methyl-2-oxo-1,2,3,4-tetrahydro-quinolin-6-yl)-5,6,7,8-tetrahydro-isoquinolin-8-yl]-propionamide]
- EC50 (human CYP11B2): 1820 nM

Structure (SMILES): CCC(=O)N[C@@H]1c2cncc(-c3ccc4c(c3)CCC(=O)N4C)c2CC[C@H]1F (single isomer, unassigned) [Example 50, (−)-N-[(7R,8R or 7S,8S)-7-Fluoro-4-(1-methyl-2-oxo-1,2,3,4-tetrahydro-quinolin-6-yl)-5,6,7,8-tetrahydro-isoquinolin-8-yl]-propionamide]
- EC50 (human CYP11B2): 4320 nM

Structure (SMILES): CCC(=O)NC1CCCc2c(-c3cc(Cl)c4c(c3)CCC(=O)N4C)cncc21 (single isomer, unassigned; (-)) [Example 40, (−)-N—[(S or R)-4-(8-Chloro-1-methyl-2-oxo-1,2,3,4-tetrahydro-quinolin-6-yl)-5,6,7,8-tetrahydro-isoquinolin-8-yl]-propionamide]
- EC50 (human CYP11B2): 126 nM
